ChEMBL document CHEMBL1201862, “PubChem BioAssay data set” (2004)
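How tested: cells in 96-well plates exposed to compound for 48 hours at five concentrations. Abbreviation: GI50, concentration required for 50% inhibition of growth.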 Calls of active or inactive are those of the source. Rule as the data show it: active = GI50 up to about 1.1 µM and inactive = higher.

Columns and labels:
Experiment in all cases: inhibition of tumour cell growth, NCI panel, 48 h
SK-OV-3 = system: SK-OV-3
HOP-62 = system: HOP-62
ACHN = system: ACHN
786-0 = system: 786-0
SF-268 = system: SF-268
SNB-75 = system: SNB-75
SK-MEL-2 = system: SK-MEL-2
HL-60 = system: HL-60
SF-295 = system: SF-295
NCI-H226 = system: NCI-H226
K562 = system: K562
UACC-257 = system: UACC-257
MOLT-4 = system: MOLT-4
SF-539 = system: SF-539
LOX IMVI = system: LOX IMVI
SK-MEL-28 = system: SK-MEL-28
HCT-15 = system: HCT-15
CAKI-1 = system: CAKI-1

Compound	GI50 (SK-OV-3)	GI50 (HOP-62)	GI50 (ACHN)	GI50 (786-0)	GI50 (SF-268)	GI50 (SNB-75)	GI50 (SK-MEL-2)	GI50 (HL-60)	GI50 (SF-295)	GI50 (NCI-H226)	GI50 (K562)	GI50 (UACC-257)	GI50 (MOLT-4)	GI50 (SF-539)	GI50 (LOX IMVI)	GI50 (SK-MEL-28)	GI50 (HCT-15)	GI50 (CAKI-1)
ClCc1ccc(C2OCCO2)cc1	46.9 µM (inactive)	24.9 µM (inactive)	> 42.4 µM (inactive)	23.3 µM (inactive)	> 100 µM (inactive)	22.4 µM (inactive)	21.1 µM (inactive)	3.36 µM (inactive)	17.9 µM (inactive)	16.9 µM (inactive)	> 31.6 µM (inactive)	14.5 µM (inactive)	13.8 µM (inactive)	> 42.3 µM (inactive)	7.23 µM (inactive)	> 40.7 µM (inactive)	16.7 µM	–
COc1ccc(/C=N/N=C(\N)NO)c(Cl)c1O	22 µM (inactive)	6.21 µM (inactive)	14.9 µM (inactive)	18.4 µM (inactive)	13.2 µM (inactive)	–	14.2 µM (inactive)	–	4.9 µM (inactive)	8.32 µM (inactive)	3.63 µM (inactive)	20.2 µM (inactive)	3.43 µM (inactive)	12.2 µM (inactive)	3.1 µM (inactive)	9.57 µM (inactive)	5.46 µM	10.3 µM (inactive)
Cc1ccccc1NC(=O)/C=N/O	> 100 µM (inactive)	> 100 µM (inactive)	> 100 µM (inactive)	> 100 µM (inactive)	> 100 µM (inactive)	> 100 µM (inactive)	> 100 µM (inactive)	0.429 µM (active)	> 100 µM (inactive)	> 100 µM (inactive)	> 100 µM (inactive)	> 100 µM (inactive)	> 100 µM (inactive)	–	> 100 µM (inactive)	> 100 µM (inactive)	> 100 µM	> 100 µM (inactive)
O=C1C(Cl)C(c2ccccc2O)N1n1cnc2ccccc2c1=O (stereo not given)	25.1 µM (inactive)	48.5 µM (inactive)	39.4 µM (inactive)	47.5 µM (inactive)	43.4 µM (inactive)	20.4 µM (inactive)	> 100 µM (inactive)	13 µM (inactive)	53.6 µM (inactive)	62.2 µM (inactive)	58.1 µM (inactive)	46.7 µM (inactive)	27.6 µM (inactive)	–	61 µM (inactive)	70.1 µM (inactive)	2.99 µM	37.8 µM (inactive)
COc1ccc(C(=O)Nc2ccc(S(=O)(=O)NCC(=O)O)cc2)cc1	> 100 µM (inactive)	–	> 100 µM (inactive)	> 100 µM (inactive)	> 100 µM (inactive)	> 100 µM (inactive)	> 100 µM (inactive)	> 100 µM (inactive)	> 100 µM (inactive)	–	> 100 µM (inactive)	> 100 µM (inactive)	> 100 µM (inactive)	> 100 µM (inactive)	> 100 µM (inactive)	> 100 µM (inactive)	> 100 µM	> 100 µM (inactive)
COC1CCC(OS(C)(=O)=O)C(CO)O1 (stereo not given)	> 100 µM (inactive)	> 100 µM (inactive)	> 100 µM (inactive)	> 100 µM (inactive)	–	> 100 µM (inactive)	> 100 µM (inactive)	> 100 µM (inactive)	> 100 µM (inactive)	–	> 100 µM (inactive)	> 100 µM (inactive)	> 100 µM (inactive)	> 100 µM (inactive)	> 100 µM (inactive)	> 100 µM (inactive)	> 100 µM	–
Cc1ccc(NC(=O)NC23CC4CC(CC(F)(C4)C2)C3)cc1	> 100 µM (inactive)	> 100 µM (inactive)	> 100 µM (inactive)	> 100 µM (inactive)	–	25.2 µM (inactive)	> 100 µM (inactive)	64.3 µM (inactive)	–	–	44.6 µM (inactive)	> 100 µM (inactive)	40.6 µM (inactive)	> 100 µM (inactive)	> 100 µM (inactive)	> 100 µM (inactive)	–	–
CS/C(=N\c1ccccc1Cl)NC(=O)c1ccc(Br)cc1	63 µM (inactive)	21.3 µM (inactive)	> 100 µM (inactive)	27.1 µM (inactive)	59.8 µM (inactive)	–	66.7 µM (inactive)	34 µM (inactive)	59.3 µM (inactive)	41 µM (inactive)	14.9 µM (inactive)	> 100 µM (inactive)	18.5 µM (inactive)	37.2 µM (inactive)	> 100 µM (inactive)	25.9 µM (inactive)	> 100 µM	32.1 µM (inactive)
Cc1ccccc1NC(=O)/C(=N\NC(N)=S)C(C#N)c1ccccc1 (stereo not given)	> 100 µM (inactive)	> 100 µM (inactive)	> 100 µM (inactive)	> 100 µM (inactive)	> 100 µM (inactive)	> 100 µM (inactive)	> 100 µM (inactive)	> 100 µM (inactive)	> 100 µM (inactive)	> 100 µM (inactive)	> 100 µM (inactive)	> 100 µM (inactive)	> 100 µM (inactive)	> 100 µM (inactive)	> 100 µM (inactive)	> 100 µM (inactive)	> 100 µM	–
